Assay results as given in ChEMBL document CHEMBL1201862, “PubChem BioAssay data set” (2004).
The source made the active and inactive calls.

Assays:
Format in all cases: functional
[1] = biological target: MAP/microtubule affinity-regulating kinase 3 (Homo sapiens, UniProt P27448);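 also: MARK3 affinity measured as one member of a kinome panel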
[2] = biological target: Non-receptor tyrosine-protein kinase TYK2 (Homo sapiens, UniProt P29597)
[3] = biological target: T1, Mitogen-activated protein kinase kinase kinase kinase 2 (Homo sapiens, UniProt Q12851);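 also: measured as one member of a kinome-wide kinase panel, with MAP4K2 as the panel entry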
T1 sequence (Q12851 whole entry): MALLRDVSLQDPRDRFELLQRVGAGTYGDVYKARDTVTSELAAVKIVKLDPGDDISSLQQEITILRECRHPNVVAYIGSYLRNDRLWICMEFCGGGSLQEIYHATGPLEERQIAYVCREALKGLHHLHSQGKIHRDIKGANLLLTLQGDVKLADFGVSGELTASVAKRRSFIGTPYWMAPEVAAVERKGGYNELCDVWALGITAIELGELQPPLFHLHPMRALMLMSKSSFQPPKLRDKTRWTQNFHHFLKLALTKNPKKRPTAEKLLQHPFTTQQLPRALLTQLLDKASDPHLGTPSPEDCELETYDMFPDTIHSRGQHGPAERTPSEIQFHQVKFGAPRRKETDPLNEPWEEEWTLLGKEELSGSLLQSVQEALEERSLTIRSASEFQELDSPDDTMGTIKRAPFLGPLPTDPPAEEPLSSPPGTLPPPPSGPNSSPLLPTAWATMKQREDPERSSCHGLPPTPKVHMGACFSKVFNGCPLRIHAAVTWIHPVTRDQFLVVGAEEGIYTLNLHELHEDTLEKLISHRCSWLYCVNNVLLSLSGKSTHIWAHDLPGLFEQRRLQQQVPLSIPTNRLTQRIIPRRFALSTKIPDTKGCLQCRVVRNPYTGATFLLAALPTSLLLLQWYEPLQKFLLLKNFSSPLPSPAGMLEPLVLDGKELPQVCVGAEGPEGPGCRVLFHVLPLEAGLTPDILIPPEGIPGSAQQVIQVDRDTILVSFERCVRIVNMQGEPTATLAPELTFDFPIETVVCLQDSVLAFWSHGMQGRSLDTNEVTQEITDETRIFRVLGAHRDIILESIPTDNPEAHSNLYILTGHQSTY

[4] = biological target: cAMP-dependent protein kinase catalytic subunit alpha (Homo sapiens, UniProt P17612)
[5] = biological target: T2, Tyrosine-protein kinase receptor TYRO3 (Homo sapiens, UniProt Q06418);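 also: TYRO3 value obtained as one member of a kinome-wide profiling panel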
T2 sequence (Q06418 whole entry): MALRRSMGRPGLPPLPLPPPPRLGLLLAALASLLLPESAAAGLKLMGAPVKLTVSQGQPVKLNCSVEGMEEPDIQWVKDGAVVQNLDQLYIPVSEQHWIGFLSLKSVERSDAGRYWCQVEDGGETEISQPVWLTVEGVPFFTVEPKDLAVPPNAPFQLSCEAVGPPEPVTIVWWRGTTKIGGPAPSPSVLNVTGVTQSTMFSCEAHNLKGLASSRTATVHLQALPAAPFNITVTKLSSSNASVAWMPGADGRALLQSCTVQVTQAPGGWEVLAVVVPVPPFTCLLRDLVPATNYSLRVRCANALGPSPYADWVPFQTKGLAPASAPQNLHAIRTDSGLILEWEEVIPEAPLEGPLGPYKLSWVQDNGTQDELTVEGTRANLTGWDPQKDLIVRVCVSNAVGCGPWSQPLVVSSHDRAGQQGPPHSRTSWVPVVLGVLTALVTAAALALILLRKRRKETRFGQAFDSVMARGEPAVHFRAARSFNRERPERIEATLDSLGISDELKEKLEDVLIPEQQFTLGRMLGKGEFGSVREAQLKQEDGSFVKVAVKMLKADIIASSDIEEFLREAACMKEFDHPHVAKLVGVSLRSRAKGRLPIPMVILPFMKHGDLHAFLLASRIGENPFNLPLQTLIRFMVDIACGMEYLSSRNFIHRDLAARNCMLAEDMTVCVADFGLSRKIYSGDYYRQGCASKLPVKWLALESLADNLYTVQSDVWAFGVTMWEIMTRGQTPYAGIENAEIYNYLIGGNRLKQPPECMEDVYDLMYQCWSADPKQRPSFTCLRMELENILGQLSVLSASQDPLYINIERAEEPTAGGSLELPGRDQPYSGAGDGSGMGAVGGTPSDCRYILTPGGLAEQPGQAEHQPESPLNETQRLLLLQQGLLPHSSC

[6] = biological target: Dual specificity tyrosine-phosphorylation-regulated kinase 1A (Homo sapiens, UniProt Q13627);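 also: measured against DYRK1A as one member of a broad kinome profiling panel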
[7] = biological target: T3, 3-phosphoinositide-dependent protein kinase 1 (Homo sapiens, UniProt O15530);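 also: value comes from the Navigating the Kinome panel, PDPK1 member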
T3 sequence (O15530 whole entry): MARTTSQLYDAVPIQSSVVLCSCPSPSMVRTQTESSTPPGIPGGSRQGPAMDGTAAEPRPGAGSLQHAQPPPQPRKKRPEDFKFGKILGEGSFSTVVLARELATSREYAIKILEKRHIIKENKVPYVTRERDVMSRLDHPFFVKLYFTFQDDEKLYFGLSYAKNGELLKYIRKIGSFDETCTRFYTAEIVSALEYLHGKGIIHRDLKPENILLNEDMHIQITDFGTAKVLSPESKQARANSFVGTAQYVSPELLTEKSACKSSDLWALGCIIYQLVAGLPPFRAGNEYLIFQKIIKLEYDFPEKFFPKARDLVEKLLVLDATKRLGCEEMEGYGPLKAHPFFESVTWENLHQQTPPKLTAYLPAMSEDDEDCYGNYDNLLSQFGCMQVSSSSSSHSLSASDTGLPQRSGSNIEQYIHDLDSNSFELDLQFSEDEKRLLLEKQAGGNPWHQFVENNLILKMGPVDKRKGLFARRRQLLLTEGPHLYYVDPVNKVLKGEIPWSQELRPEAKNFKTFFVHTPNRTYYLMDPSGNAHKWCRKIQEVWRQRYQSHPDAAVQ

[8] = biological target: Calcium/calmodulin-dependent protein kinase type 1 (Homo sapiens, UniProt Q14012)
[9] = biological target: Casein kinase I isoform delta (Homo sapiens, UniProt P48730);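 also: measured as one member (CSNK1D) of a kinome panel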
Aurora kinase B = Aurora kinase B (Homo sapiens, UniProt Q96GD4)
Aurora kinase B, sequence (Q96GD4 whole entry): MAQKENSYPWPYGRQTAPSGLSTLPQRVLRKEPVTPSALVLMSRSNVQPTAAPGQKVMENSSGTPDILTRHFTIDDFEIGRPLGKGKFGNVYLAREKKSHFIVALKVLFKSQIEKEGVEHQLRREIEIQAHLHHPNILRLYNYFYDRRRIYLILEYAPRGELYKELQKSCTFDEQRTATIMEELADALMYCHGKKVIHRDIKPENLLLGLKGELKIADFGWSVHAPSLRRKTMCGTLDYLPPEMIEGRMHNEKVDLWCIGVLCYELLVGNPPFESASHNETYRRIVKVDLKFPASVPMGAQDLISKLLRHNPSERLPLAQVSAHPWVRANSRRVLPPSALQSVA

Calcium/calmodulin-dependent protein kinase type 1, sequence (Q14012 whole entry, canonical isoform): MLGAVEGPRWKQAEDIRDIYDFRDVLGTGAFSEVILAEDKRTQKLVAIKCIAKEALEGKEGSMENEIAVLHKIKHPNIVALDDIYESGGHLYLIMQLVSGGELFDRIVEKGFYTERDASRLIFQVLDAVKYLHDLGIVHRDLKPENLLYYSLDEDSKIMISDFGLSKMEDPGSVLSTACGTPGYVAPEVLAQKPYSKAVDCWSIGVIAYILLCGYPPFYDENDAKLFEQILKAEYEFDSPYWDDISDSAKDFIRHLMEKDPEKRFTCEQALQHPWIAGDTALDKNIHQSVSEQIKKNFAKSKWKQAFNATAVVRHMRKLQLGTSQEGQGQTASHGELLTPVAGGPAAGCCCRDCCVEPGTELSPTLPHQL
Non-receptor tyrosine-protein kinase TYK2, sequence (P29597 whole entry): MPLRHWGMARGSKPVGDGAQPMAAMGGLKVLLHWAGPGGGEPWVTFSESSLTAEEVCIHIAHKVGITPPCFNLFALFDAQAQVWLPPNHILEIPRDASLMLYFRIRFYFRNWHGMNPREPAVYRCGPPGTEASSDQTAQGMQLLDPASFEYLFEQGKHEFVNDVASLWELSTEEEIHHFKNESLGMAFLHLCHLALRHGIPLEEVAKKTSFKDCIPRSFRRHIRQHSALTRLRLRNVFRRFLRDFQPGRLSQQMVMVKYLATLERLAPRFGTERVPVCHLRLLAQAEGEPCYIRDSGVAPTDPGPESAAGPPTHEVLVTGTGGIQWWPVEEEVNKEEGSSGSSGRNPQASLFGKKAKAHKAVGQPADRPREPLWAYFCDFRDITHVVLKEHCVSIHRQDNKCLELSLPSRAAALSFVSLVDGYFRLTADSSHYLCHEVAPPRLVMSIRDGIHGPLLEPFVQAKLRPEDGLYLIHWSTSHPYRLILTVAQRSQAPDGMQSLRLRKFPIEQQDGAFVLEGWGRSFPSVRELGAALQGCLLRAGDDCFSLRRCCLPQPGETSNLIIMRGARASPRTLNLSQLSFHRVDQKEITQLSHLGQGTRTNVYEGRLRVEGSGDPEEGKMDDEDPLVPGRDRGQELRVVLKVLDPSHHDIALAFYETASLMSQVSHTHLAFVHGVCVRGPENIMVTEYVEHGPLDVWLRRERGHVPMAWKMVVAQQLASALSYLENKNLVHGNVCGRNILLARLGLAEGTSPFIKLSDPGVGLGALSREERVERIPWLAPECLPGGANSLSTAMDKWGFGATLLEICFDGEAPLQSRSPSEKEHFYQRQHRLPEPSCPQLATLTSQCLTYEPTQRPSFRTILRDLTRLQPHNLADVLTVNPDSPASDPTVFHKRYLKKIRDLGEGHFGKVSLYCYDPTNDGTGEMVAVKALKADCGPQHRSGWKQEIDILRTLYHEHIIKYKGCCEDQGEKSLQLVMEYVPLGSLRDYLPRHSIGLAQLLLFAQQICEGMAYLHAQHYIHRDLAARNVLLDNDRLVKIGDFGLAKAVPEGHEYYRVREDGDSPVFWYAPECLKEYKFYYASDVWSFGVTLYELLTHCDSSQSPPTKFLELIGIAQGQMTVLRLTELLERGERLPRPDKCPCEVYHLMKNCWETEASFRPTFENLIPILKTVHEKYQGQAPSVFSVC
Casein kinase I isoform delta, sequence (P48730 whole entry, canonical isoform): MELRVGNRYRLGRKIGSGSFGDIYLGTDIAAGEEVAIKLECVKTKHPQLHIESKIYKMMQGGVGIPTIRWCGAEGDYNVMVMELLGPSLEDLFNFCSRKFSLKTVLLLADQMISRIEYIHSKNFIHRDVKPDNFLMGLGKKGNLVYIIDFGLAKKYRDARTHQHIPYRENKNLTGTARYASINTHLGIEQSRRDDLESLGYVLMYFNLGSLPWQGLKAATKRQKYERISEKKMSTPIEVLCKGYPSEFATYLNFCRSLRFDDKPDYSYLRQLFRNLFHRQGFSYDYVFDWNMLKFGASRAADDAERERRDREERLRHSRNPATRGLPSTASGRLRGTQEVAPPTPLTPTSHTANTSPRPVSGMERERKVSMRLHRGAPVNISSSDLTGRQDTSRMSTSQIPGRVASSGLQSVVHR
MAP/microtubule affinity-regulating kinase 3, sequence (P27448 whole entry): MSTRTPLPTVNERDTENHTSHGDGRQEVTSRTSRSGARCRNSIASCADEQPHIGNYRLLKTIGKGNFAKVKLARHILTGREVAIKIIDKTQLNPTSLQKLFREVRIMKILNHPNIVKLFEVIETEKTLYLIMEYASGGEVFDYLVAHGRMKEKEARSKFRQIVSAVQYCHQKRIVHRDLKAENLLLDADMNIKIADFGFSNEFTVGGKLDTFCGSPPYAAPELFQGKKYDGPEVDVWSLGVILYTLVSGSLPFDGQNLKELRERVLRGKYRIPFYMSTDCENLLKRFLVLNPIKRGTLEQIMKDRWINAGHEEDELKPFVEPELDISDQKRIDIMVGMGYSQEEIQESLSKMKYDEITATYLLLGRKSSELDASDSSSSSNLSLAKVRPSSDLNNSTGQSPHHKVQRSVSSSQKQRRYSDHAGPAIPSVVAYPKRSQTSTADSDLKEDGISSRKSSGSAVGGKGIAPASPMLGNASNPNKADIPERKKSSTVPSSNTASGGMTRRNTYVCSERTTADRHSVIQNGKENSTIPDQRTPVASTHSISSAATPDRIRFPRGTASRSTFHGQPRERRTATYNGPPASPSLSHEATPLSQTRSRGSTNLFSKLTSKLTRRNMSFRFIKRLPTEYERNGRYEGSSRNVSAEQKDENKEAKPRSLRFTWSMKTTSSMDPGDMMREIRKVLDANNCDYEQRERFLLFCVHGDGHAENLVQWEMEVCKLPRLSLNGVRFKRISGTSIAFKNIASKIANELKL

| Ki [1] | pKi [1] | Ki [2] | Ki [3] | pKi [3] | Ki [4] | pKi [4] | Ki [5] | Ki [6] | pKi [6] | Ki [7] | Ki [8] | Ki [9] | pKi [9] | Ki (Aurora kinase B) | pKi (Aurora kinase B) | SMILES |
| --- | --- | --- | --- | --- | --- | --- | --- | --- | --- | --- | --- | --- | --- | --- | --- | --- |
| 501 nM (active) | 6.3 | 0.794 µM (active) | 200 nM (active) | 6.7 | 398 nM (active) | 6.4 | > 2 µM (inactive) | 0.794 nM (active) | 9.1 | > 3.98 µM (inactive) | > 3.98 µM (inactive) | 15.8 nM (active) | 7.8 | 631 nM (active) | 6.2 | NC(=O)c1cc(-c2ccnc(N)n2)[nH]c1-c1ccc(Cl)cc1Cl |
| 39.8 nM (active) | – | > 2 µM (inactive) | 39.8 nM (active) | – | 12.6 nM (active) | – | > 2 µM (inactive) | 2.51 nM (active) | – | 0.0501 µM (active) | 1.26 µM (active) | 398 nM (active) | – | 200 nM (active) | – | NC(COc1cncc(-c2ccc3c(c2)C(=Cc2ccco2)C(=O)N3)c1)Cc1c[nH]c2ccccc12 (stereo unspecified) |

| SMILES | Ki [1] | pKi [1] | Ki [2] | Ki [3] | pKi [3] | Ki [4] | pKi [4] | Ki [5] | Ki [6] | pKi [6] | Ki [7] | Ki [8] | Ki [9] | pKi [9] | Ki (Aurora kinase B) | pKi (Aurora kinase B) |
| --- | --- | --- | --- | --- | --- | --- | --- | --- | --- | --- | --- | --- | --- | --- | --- | --- |
| Cc1ccc(-n2nc(C(C)(C)C)cc2NC(=O)Nc2ccc(OCCN3CCOCC3)c3ccccc23)cc1 [DORAMAPIMOD] | > 5010 nM (inactive) | – | > 2 µM (inactive) | > 2510 nM (inactive) | – | > 2000 nM (inactive) | – | 2 µM (active) | > 2000 nM (inactive) | – | > 3.98 µM (inactive) | > 7.94 µM (inactive) | > 7940 nM (inactive) | – | > 5010 nM (inactive) | – |
